Measured values published in the supplement of paper PMC5662764.
± gives the standard deviation of the averaged measurements.

Legend:
Assay in all cases: normalised growth rate inhibition (GR value) relative to DMSO control (GR (1 = untreated growth, 0 = cytostasis, <0 = cytotoxic)); higher = less growth inhibition
Settings in all cases: 72 h
HS578T = system: HS578T
Protocol: (§1)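 Breast cancer cell lines (BT-20, Hs 578T, MCF 10A, MCF7, MDA-MB-231, SK-BR-3) were plated in 384-well plates and treated 24 h later with drugs at six concentrations (0.04-10 µM). Viable cells were counted by Hoechst/dead-cell-stain imaging at 0 and 72 h. Counts were normalised to DMSO controls on the same plate to give the relative cell count and the growth-rate inhibition (GR) value; technical plate triplicates were averaged for each biological replicate.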

SKBR3 = system: SKBR3
Protocol: as §1

MCF7 = system: MCF7
Protocol: as §1

MCF10A = system: MCF10A
Protocol: as §1

BT20 = system: BT20
Protocol: as §1

MDAMB231 = system: MDAMB231
Protocol: as §1

| SMILES | normalised growth rate inhibition (HS578T; 0.04 µM) | normalised growth rate inhibition (HS578T; 0.12 µM) | normalised growth rate inhibition (HS578T; 0.37 µM) | normalised growth rate inhibition (HS578T; 1.11 µM) | normalised growth rate inhibition (HS578T; 3.33 µM) | normalised growth rate inhibition (HS578T; 10 µM) | normalised growth rate inhibition (SKBR3; 0.04 µM) | normalised growth rate inhibition (SKBR3; 0.12 µM) | normalised growth rate inhibition (SKBR3; 0.37 µM) | normalised growth rate inhibition (SKBR3; 1.11 µM) | normalised growth rate inhibition (SKBR3; 3.33 µM) | normalised growth rate inhibition (SKBR3; 10 µM) | normalised growth rate inhibition (MCF7; 0.04 µM) | normalised growth rate inhibition (MCF7; 0.12 µM) | normalised growth rate inhibition (MCF7; 0.37 µM) | normalised growth rate inhibition (MCF7; 1.11 µM) | normalised growth rate inhibition (MCF7; 3.33 µM) | normalised growth rate inhibition (MCF7; 10 µM) | normalised growth rate inhibition (MCF10A; 0.04 µM) | normalised growth rate inhibition (MCF10A; 0.12 µM) | normalised growth rate inhibition (MCF10A; 0.37 µM) | normalised growth rate inhibition (MCF10A; 1.11 µM) | normalised growth rate inhibition (MCF10A; 3.33 µM) | normalised growth rate inhibition (MCF10A; 10 µM) | normalised growth rate inhibition (BT20; 0.04 µM) | normalised growth rate inhibition (BT20; 0.12 µM) | normalised growth rate inhibition (BT20; 0.37 µM) | normalised growth rate inhibition (BT20; 1.11 µM) | normalised growth rate inhibition (BT20; 3.33 µM) | normalised growth rate inhibition (BT20; 10 µM) | normalised growth rate inhibition (MDAMB231; 0.04 µM) | normalised growth rate inhibition (MDAMB231; 0.12 µM) | normalised growth rate inhibition (MDAMB231; 0.37 µM) | normalised growth rate inhibition (MDAMB231; 1.11 µM) | normalised growth rate inhibition (MDAMB231; 3.33 µM) | normalised growth rate inhibition (MDAMB231; 10 µM) |
| --- | --- | --- | --- | --- | --- | --- | --- | --- | --- | --- | --- | --- | --- | --- | --- | --- | --- | --- | --- | --- | --- | --- | --- | --- | --- | --- | --- | --- | --- | --- | --- | --- | --- | --- | --- | --- |
| CC(=O)Nc1nc(C)c(-c2ccc(Cl)c(S(=O)(=O)NCCO)c2)s1 | 1.013 ± 0.0069 | 1.01 ± 0.02 | 0.99 ± 0.056 | 0.929 ± 0.093 | 0.585 ± 0.16 | 0.162 ± 0.19 | 1.09 ± 0.03 | 1.09 ± 0.045 | 1.01 ± 0.094 | 0.916 ± 0.12 | 0.597 ± 0.037 | 0.00524 ± 0.12 | 1.08 ± 0.094 | 1.03 ± 0.14 | 0.994 ± 0.22 | 0.88 ± 0.28 | 0.441 ± 0.11 | 0.0722 ± 0.078 | 0.9973 ± 0.0055 | 0.995 ± 0.02 | 0.993 ± 0.029 | 0.959 ± 0.026 | 0.831 ± 0.094 | 0.502 ± 0.077 | 1.024 ± 0.0077 | 1.02 ± 0.03 | 1.05 ± 0.034 | 0.973 ± 0.068 | 0.746 ± 0.033 | 0.0954 ± 0.044 | 1.01 ± 0.055 | 1.01 ± 0.061 | 0.999 ± 0.1 | 0.919 ± 0.061 | 0.78 ± 0.036 | 0.272 ± 0.021 |
| CCn1c(-c2nonc2N)nc2c(C#CC(C)(C)O)ncc(OC[C@H]3CCCNC3)c21 | 0.846 ± 0.058 | 0.798 ± 0.075 | 0.726 ± 0.084 | 0.713 ± 0.11 | 0.717 ± 0.13 | 0.728 ± 0.12 | 0.578 ± 0.064 | 0.555 ± 0.035 | 0.556 ± 0.038 | 0.571 ± 0.039 | 0.62 ± 0.032 | 0.658 ± 0.065 | 0.6 ± 0.073 | 0.499 ± 0.17 | 0.42 ± 0.13 | 0.374 ± 0.096 | 0.361 ± 0.09 | 0.312 ± 0.09 | 0.989 ± 0.029 | 0.976 ± 0.024 | 0.937 ± 0.039 | 0.873 ± 0.034 | 0.872 ± 0.039 | 0.891 ± 0.042 | 0.8181 ± 0.0049 | 0.779 ± 0.062 | 0.636 ± 0.11 | 0.521 ± 0.12 | 0.453 ± 0.062 | 0.371 ± 0.047 | 0.86 ± 0.088 | 0.904 ± 0.021 | 0.906 ± 0.021 | 0.94 ± 0.026 | 1.01 ± 0.032 | 0.869 ± 0.08 |
| CN(c1ccccc1CNc1nc(Nc2ccc3c(c2)CC(=O)N3)ncc1C(F)(F)F)S(C)(=O)=O | 0.761 ± 0.021 | 0.694 ± 0.042 | 0.537 ± 0.063 | 0.27 ± 0.068 | 0.181 ± 0.076 | -0.0957 ± 0.088 | 1.04 ± 0.024 | 0.653 ± 0.081 | 0.306 ± 0.017 | 0.0323 ± 0.071 | -0.0178 ± 0.071 | -0.141 ± 0.18 | 0.742 ± 0.065 | 0.471 ± 0.1 | 0.184 ± 0.078 | 0.0628 ± 0.026 | -0.0235 ± 0.037 | -0.28 ± 0.03 | 0.744 ± 0.029 | 0.501 ± 0.056 | 0.233 ± 0.087 | 0.106 ± 0.019 | 0.0578 ± 0.032 | -0.154 ± 0.16 | 0.902 ± 0.043 | 0.763 ± 0.035 | 0.414 ± 0.12 | 0.121 ± 0.12 | 0.0389 ± 0.12 | -0.19 ± 0.21 | 0.913 ± 0.058 | 0.78 ± 0.082 | 0.49 ± 0.2 | 0.241 ± 0.13 | 0.11 ± 0.13 | -0.197 ± 0.22 |
| Cc1[nH]c(/C=C2\C(=O)Nc3ccc(S(=O)(=O)Cc4c(Cl)cccc4Cl)cc32)c(C)c1C(=O)N1CCC[C@@H]1CN1CCCC1 | 1 ± 0.028 | 1.002 ± 0.003 | 1 ± 0.011 | 0.96 ± 0.032 | 0.954 ± 0.018 | -0.131 ± 0.58 | 1.04 ± 0.071 | 1.06 ± 0.052 | 1.07 ± 0.087 | 1.06 ± 0.098 | 0.956 ± 0.047 | 0.012 ± 0.5 | 1.06 ± 0.012 | 1.06 ± 0.073 | 1.05 ± 0.051 | 1.01 ± 0.059 | 0.923 ± 0.052 | 0.665 ± 0.17 | 0.991 ± 0.01 | 0.9827 ± 0.0045 | 0.9763 ± 0.0045 | 0.967 ± 0.012 | 0.9647 ± 0.0068 | 0.544 ± 0.43 | 1.017 ± 0.0089 | 1.01 ± 0.052 | 1.003 ± 0.0079 | 0.976 ± 0.042 | 0.973 ± 0.035 | 0.22 ± 0.42 | 1.03 ± 0.045 | 1.02 ± 0.069 | 1.02 ± 0.043 | 0.997 ± 0.053 | 0.94 ± 0.023 | -0.343 ± 0.3 |
| Cc1[nH]c(/C=C2\C(=O)Nc3ccc(S(=O)(=O)N(C)c4cccc(Cl)c4)cc32)c(C)c1C(=O)N1CCN(C)CC1 | 1.02 ± 0.014 | 0.992 ± 0.013 | 0.9492 ± 0.0032 | 0.883 ± 0.025 | 0.818 ± 0.03 | 0.159 ± 0.083 | 1.14 ± 0.075 | 1.08 ± 0.085 | 1.11 ± 0.057 | 0.996 ± 0.058 | 0.923 ± 0.032 | 0.00625 ± 0.024 | 1.1 ± 0.046 | 1.05 ± 0.075 | 1.01 ± 0.073 | 0.858 ± 0.037 | 0.712 ± 0.045 | 0.0989 ± 0.046 | 1 ± 0.019 | 0.976 ± 0.02 | 0.941 ± 0.02 | 0.867 ± 0.01 | 0.742 ± 0.022 | 0.474 ± 0.032 | 1.06 ± 0.037 | 1.04 ± 0.017 | 1 ± 0.029 | 0.922 ± 0.015 | 0.819 ± 0.011 | 0.0654 ± 0.082 | 1.07 ± 0.065 | 1.01 ± 0.04 | 1 ± 0.057 | 0.954 ± 0.058 | 0.847 ± 0.076 | 0.0987 ± 0.12 |
| Cc1ccc2nc(NCCN)c3ncc(C)n3c2c1 | 1.01 ± 0.018 | 0.998 ± 0.018 | 0.99 ± 0.021 | 0.92 ± 0.049 | 0.723 ± 0.11 | -0.218 ± 0.13 | 1.05 ± 0.043 | 1.01 ± 0.088 | 0.929 ± 0.11 | 0.604 ± 0.066 | 0.192 ± 0.13 | -0.358 ± 0.23 | 1.06 ± 0.058 | 1 ± 0.06 | 0.883 ± 0.058 | 0.502 ± 0.14 | 0.0136 ± 0.12 | -0.348 ± 0.14 | 0.996 ± 0.011 | 0.979 ± 0.014 | 0.974 ± 0.016 | 0.967 ± 0.019 | 0.957 ± 0.018 | 0.85 ± 0.046 | 1.01 ± 0.027 | 0.968 ± 0.055 | 0.952 ± 0.087 | 0.847 ± 0.12 | 0.778 ± 0.082 | -0.00828 ± 0.2 | 0.9929 ± 0.0097 | 0.936 ± 0.097 | 0.885 ± 0.06 | 0.652 ± 0.085 | 0.265 ± 0.11 | -0.253 ± 0.2 |
| Cc1cnc(Nc2ccc(OCCN3CCCC3)cc2)nc1Nc1cccc(S(=O)(=O)NC(C)(C)C)c1 | 1.01 ± 0.019 | 0.986 ± 0.019 | 0.887 ± 0.03 | 0.655 ± 0.066 | 0.258 ± 0.1 | -0.184 ± 0.17 | 1.07 ± 0.082 | 0.997 ± 0.013 | 0.907 ± 0.023 | 0.766 ± 0.065 | 0.501 ± 0.11 | -0.201 ± 0.095 | 1.02 ± 0.06 | 0.96 ± 0.079 | 0.813 ± 0.11 | 0.545 ± 0.23 | 0.0996 ± 0.12 | -0.272 ± 0.058 | 0.989 ± 0.019 | 0.964 ± 0.018 | 0.938 ± 0.028 | 0.876 ± 0.041 | 0.512 ± 0.19 | 0.0536 ± 0.034 | 1.04 ± 0.029 | 0.969 ± 0.0097 | 0.934 ± 0.022 | 0.823 ± 0.031 | 0.629 ± 0.024 | -0.141 ± 0.14 | 1.01 ± 0.074 | 0.934 ± 0.075 | 0.877 ± 0.11 | 0.643 ± 0.19 | 0.104 ± 0.19 | -0.306 ± 0.15 |
